According to ChEMBL document CHEMBL2163239, “Inhibitors of human immunodeficiency virus type 1 (HIV-1) attachment 6. Preclinical and human pharmacokinetic profiling of BMS-663749, a phosphonooxymethyl prodrug of the HIV-1 attachment inhibitor 2-(4-benzoyl-1-piperazinyl)-1-(4,7-dimethoxy-1H-pyrrolo[2,3-c]pyridin-3-yl)-2-oxoethanone …” (J Med Chem, 2012):
Activity calls are given as the source filed them. The calls are words filed in the database; no cut-off is given here.

How the values were obtained:
[1] = Cmax in high fat fed healthy human at 800 mg, po administered as capsule with high fat meal; type: ADME, organism-based; set-up: dose 800 mg, route oral; settings: in vivo
[2] = Permeability across human Caco2 cells at pH 6.5; type: ADME, cell-based; settings: Caco-2, pH 6.5, read-out: permeability
[3] = AUC (infinity) in high fat fed healthy human at 800 mg, po administered as capsule with high fat meal; type: ADME, organism-based; set-up: dose 800 mg, time infinity, route oral; settings: plasma
[4] = Dissociation constant, pKa of compound; type: physicochemical
[5] = tested on: Homo sapiens; assay: Toxicity in HIV 1-infected human assessed as adverse events at 1800 mg, po bid for 8 days measured upto 14 days; type: organism-based; settings: in vivo
[6] = Plasma concentration in high fat fed healthy human at 800 mg, po administered as capsule with high fat meal measured after 12 hrs; type: ADME, organism-based
[7] = Half life in high fat fed healthy human at 800 mg, po administered as capsule with high fat meal; type: ADME, organism-based; settings: in vivo
[8] = Lipophilicity, log P of compound in octanol-PBS mixture at pH 6.5 by HPLC-UV analysis; type: physicochemical
[9] = Tmax in high fat fed healthy human at 800 mg, po administered as capsule with high fat meal; type: ADME, organism-based; settings: in vivo
[10] = tested on: Human immunodeficiency virus 1; assay: Antiviral activity against HIV 1-infected human assessed as reduction in viral load at 1800 mg, po bid for 8 days measured upto 14 days; type: functional, organism-based

- Cmax [1]: 4100 ng/mL
- Papp [2]: > 10 ×10⁻⁶ cm/s
- AUC(0-inf) [3]: 21200 ng·h/mL
- pKa [4]: 2.6
- concentration at 12 h [6]: 175 ng/mL
- half-life [7]: 14 h
- logD [8]: 1.5
- Tmax [9]: 4 h
Compound: COc1ncc(OC)c2c(C(=O)C(=O)N3CCN(C(=O)c4ccccc4)CC3)c[nH]c12
- Activity [5]: Non-toxic
- Activity [10]: Active
